Data: article PMC11570842 (The Journal of Biological Chemistry, 2024)

Target: T1, Ubp2 (Saccharomyces cerevisiae, UniProt Q01476)
T1 sequence (Q01476 1-1272): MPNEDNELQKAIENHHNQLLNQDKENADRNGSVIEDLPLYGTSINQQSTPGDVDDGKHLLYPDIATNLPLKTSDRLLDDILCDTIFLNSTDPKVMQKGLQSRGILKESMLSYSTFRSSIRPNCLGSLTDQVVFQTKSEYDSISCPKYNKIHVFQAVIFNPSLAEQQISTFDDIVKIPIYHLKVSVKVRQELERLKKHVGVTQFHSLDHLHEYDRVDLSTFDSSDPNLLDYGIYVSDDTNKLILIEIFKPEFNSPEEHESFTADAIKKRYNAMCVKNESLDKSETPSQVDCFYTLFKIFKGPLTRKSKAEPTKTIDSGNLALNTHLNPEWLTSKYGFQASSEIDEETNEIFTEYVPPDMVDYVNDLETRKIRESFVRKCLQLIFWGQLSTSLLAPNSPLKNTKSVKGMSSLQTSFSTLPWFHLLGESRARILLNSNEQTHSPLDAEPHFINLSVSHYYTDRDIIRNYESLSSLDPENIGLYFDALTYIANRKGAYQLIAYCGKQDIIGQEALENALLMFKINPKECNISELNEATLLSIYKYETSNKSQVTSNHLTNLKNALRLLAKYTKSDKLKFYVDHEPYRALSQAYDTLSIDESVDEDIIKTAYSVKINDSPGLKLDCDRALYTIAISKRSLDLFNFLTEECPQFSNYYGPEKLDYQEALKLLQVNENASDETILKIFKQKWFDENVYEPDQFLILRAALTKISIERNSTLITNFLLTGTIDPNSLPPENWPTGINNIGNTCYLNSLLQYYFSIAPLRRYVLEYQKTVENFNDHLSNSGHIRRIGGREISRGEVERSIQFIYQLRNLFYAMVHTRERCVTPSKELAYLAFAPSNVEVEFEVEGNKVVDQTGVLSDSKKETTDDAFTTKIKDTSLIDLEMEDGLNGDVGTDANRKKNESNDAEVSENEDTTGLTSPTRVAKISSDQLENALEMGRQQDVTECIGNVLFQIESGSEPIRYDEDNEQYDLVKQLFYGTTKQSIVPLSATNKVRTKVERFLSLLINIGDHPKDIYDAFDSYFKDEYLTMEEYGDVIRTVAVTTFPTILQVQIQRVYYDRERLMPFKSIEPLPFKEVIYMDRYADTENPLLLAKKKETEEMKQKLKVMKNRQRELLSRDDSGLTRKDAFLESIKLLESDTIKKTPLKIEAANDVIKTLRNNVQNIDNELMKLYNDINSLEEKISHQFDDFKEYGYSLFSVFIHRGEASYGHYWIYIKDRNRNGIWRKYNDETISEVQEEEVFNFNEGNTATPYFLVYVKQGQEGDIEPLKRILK
Settings: 100 uM PR-619, 5 min preincubation; 0.75 uM Ub-Rho, 50 mM Tris-HCl pH 7.5, 150 mM NaCl, 30 C; activity abrogated

For `N#CSc1cc(SC#N)c(N)nc1N` [PR-619], the “fluorogenic Ub-rhodamine 110 cleavage” value was “pan DUB inhibitor PR-619 and the cysteine alkylator iodoacetamide (IAA) abrogated Ubp2 enzymatic activity”.
